Test results taken from ChEMBL document CHEMBL1201862, “PubChem BioAssay data set” (2004).
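Interpolation was linear, between the two tested concentrations surrounding the appropriate level; five concentrations were tested over 48 hours in 96-well plates. Here, GI50 denotes the concentration required for 50% inhibition of growth.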 Activity calls are given as the source filed them. Rule as the data show it: active = GI50 up to about 1.1 µM and inactive = higher.

What was measured:
Test in all cases: DTP human tumour cell line panel, 48 h
A498 = tested on: A498
A549 = tested on: A549
CAKI-1 = tested on: CAKI-1
CCRF-CEM = tested on: CCRF-CEM
COLO 205 = tested on: COLO 205
DLD-1 = tested on: DLD-1
DMS-114 = tested on: DMS-114
DMS-273 = tested on: DMS-273
EKVX = tested on: EKVX
HCC 2998 = tested on: HCC 2998
HCT-116 = tested on: HCT-116
HCT-15 = tested on: HCT-15
HL-60 = tested on: HL-60
HOP-18 = tested on: HOP-18
HOP-62 = tested on: HOP-62
HOP-92 = tested on: HOP-92
HT-29 = tested on: HT-29
IGROV-1 = tested on: IGROV-1
K562 = tested on: K562
KM-20L2 = tested on: KM-20L2
KM12 = tested on: KM12
LOX IMVI = tested on: LOX IMVI
M19-MEL = tested on: M19-MEL
MCF7 = tested on: MCF7
MOLT-4 = tested on: MOLT-4
Malme-3M = tested on: Malme-3M
NCI-H226 = tested on: NCI-H226
NCI-H23 = tested on: NCI-H23
NCI-H460 = tested on: NCI-H460
NCI-H522 = tested on: NCI-H522
NCI/ADR-RES = tested on: NCI/ADR-RES
OVCAR-3 = tested on: OVCAR-3
OVCAR-4 = tested on: OVCAR-4
OVCAR-5 = tested on: OVCAR-5
OVCAR-8 = tested on: OVCAR-8
RPMI-8226 = tested on: RPMI-8226
RXF 393 = tested on: RXF 393
SF-268 = tested on: SF-268
SF-295 = tested on: SF-295
SF-539 = tested on: SF-539
SK-MEL-28 = tested on: SK-MEL-28
SK-MEL-2 = tested on: SK-MEL-2
SK-MEL-5 = tested on: SK-MEL-5
SK-OV-3 = tested on: SK-OV-3
SN12C = tested on: SN12C
SNB-19 = tested on: SNB-19
SNB-75 = tested on: SNB-75
SNB-78 = tested on: SNB-78
SW-620 = tested on: SW-620
U-251 = tested on: U-251
UACC-257 = tested on: UACC-257
UACC-62 = tested on: UACC-62
UO-31 = tested on: UO-31
XF498 = tested on: XF498

COc1ccc(C2C3CCCC(C3=O)C(c3ccc(OC)cc3)N2N=O)cc1 (configuration not stated)
GI50 (A498): 15.2 µM (inactive)
GI50 (A549): 34.7 µM (inactive)
GI50 (CAKI-1): 29.9 µM (inactive)
GI50 (CCRF-CEM): 26.1 µM (inactive)
GI50 (COLO 205): 20.1 µM (inactive)
GI50 (DLD-1): 33.9 µM (inactive)
GI50 (DMS-114): 23.1 µM (inactive)
GI50 (DMS-273): 23 µM (inactive)
GI50 (EKVX): 56.9 µM (inactive)
GI50 (HCC 2998): 28.9 µM (inactive)
GI50 (HCT-116): 29 µM (inactive)
GI50 (HCT-15): 36.9 µM
GI50 (HL-60): 25.2 µM (inactive)
GI50 (HOP-18): 8.91 µM (inactive)
GI50 (HOP-62): 38.5 µM (inactive)
GI50 (HOP-92): 41.7 µM (inactive)
GI50 (HT-29): 21.4 µM (inactive)
GI50 (IGROV-1): 35.5 µM (inactive)
GI50 (K562): 23.9 µM (inactive)
GI50 (KM-20L2): 30.7 µM (inactive)
GI50 (KM12): 29.6 µM (inactive)
GI50 (LOX IMVI): 18 µM (inactive)
GI50 (M19-MEL): 32.4 µM (inactive)
GI50 (MCF7): 18.8 µM (inactive)
GI50 (MOLT-4): 25.2 µM (inactive)
GI50 (Malme-3M): 7.85 µM (inactive)
GI50 (NCI-H226): 23.3 µM (inactive)
GI50 (NCI-H23): 19.5 µM (inactive)
GI50 (NCI-H460): 20.6 µM (inactive)
GI50 (NCI-H522): 17.1 µM (inactive)
GI50 (NCI/ADR-RES): 32.4 µM (inactive)
GI50 (OVCAR-3): 6.71 µM (inactive)
GI50 (OVCAR-4): 21.7 µM (inactive)
GI50 (OVCAR-5): > 55.6 µM (inactive)
GI50 (OVCAR-8): 37 µM (inactive)
GI50 (RPMI-8226): 20.7 µM (inactive)
GI50 (RXF 393): 18.9 µM (inactive)
GI50 (SF-268): 48.5 µM (inactive)
GI50 (SF-295): 20.7 µM (inactive)
GI50 (SF-539): > 10 µM (inactive)
GI50 (SK-MEL-28): 40.3 µM (inactive)
GI50 (SK-MEL-2): 20.5 µM (inactive)
GI50 (SK-MEL-5): 17.7 µM (inactive)
GI50 (SK-OV-3): 37.4 µM (inactive)
GI50 (SN12C): 18.5 µM (inactive)
GI50 (SNB-19): 36.3 µM (inactive)
GI50 (SNB-75): 26.5 µM (inactive)
GI50 (SNB-78): > 66.4 µM (inactive)
GI50 (SW-620): 42.9 µM (inactive)
GI50 (U-251): 40.6 µM (inactive)
GI50 (UACC-257): 27.9 µM (inactive)
GI50 (UACC-62): 28.6 µM (inactive)
GI50 (UO-31): 56.1 µM (inactive)
GI50 (XF498): 33.7 µM (inactive)

CSCC[C@@H]1C(=O)N(C)[C@H](C(C)(C)C)N1C(=O)c1ccccc1
GI50 (A498): > 100 µM (inactive)
GI50 (A549): > 100 µM (inactive)
GI50 (CCRF-CEM): > 100 µM (inactive)
GI50 (COLO 205): > 100 µM (inactive)
GI50 (DLD-1): > 100 µM (inactive)
GI50 (DMS-114): > 100 µM (inactive)
GI50 (DMS-273): > 100 µM (inactive)
GI50 (EKVX): > 100 µM (inactive)
GI50 (HCC 2998): > 100 µM (inactive)
GI50 (HCT-116): > 100 µM (inactive)
GI50 (HCT-15): > 100 µM
GI50 (HL-60): > 100 µM (inactive)
GI50 (HOP-18): > 100 µM (inactive)
GI50 (HOP-62): > 100 µM (inactive)
GI50 (HOP-92): > 100 µM (inactive)
GI50 (HT-29): > 81.5 µM (inactive)
GI50 (IGROV-1): > 100 µM (inactive)
GI50 (K562): > 100 µM (inactive)
GI50 (KM-20L2): > 100 µM (inactive)
GI50 (KM12): > 100 µM (inactive)
GI50 (LOX IMVI): > 100 µM (inactive)
GI50 (M19-MEL): > 100 µM (inactive)
GI50 (MCF7): > 100 µM (inactive)
GI50 (MOLT-4): > 100 µM (inactive)
GI50 (Malme-3M): > 100 µM (inactive)
GI50 (NCI-H226): > 100 µM (inactive)
GI50 (NCI-H23): > 100 µM (inactive)
GI50 (NCI-H460): > 100 µM (inactive)
GI50 (NCI-H522): > 100 µM (inactive)
GI50 (NCI/ADR-RES): > 100 µM (inactive)
GI50 (OVCAR-3): > 100 µM (inactive)
GI50 (OVCAR-4): > 100 µM (inactive)
GI50 (OVCAR-5): > 100 µM (inactive)
GI50 (OVCAR-8): > 100 µM (inactive)
GI50 (RPMI-8226): > 100 µM (inactive)
GI50 (RXF 393): > 100 µM (inactive)
GI50 (SF-268): > 100 µM (inactive)
GI50 (SF-295): > 100 µM (inactive)
GI50 (SF-539): > 100 µM (inactive)
GI50 (SK-MEL-28): > 100 µM (inactive)
GI50 (SK-MEL-2): > 100 µM (inactive)
GI50 (SK-MEL-5): > 100 µM (inactive)
GI50 (SK-OV-3): > 100 µM (inactive)
GI50 (SN12C): > 100 µM (inactive)
GI50 (SNB-19): > 100 µM (inactive)
GI50 (SNB-75): > 100 µM (inactive)
GI50 (SNB-78): > 100 µM (inactive)
GI50 (SW-620): > 100 µM (inactive)
GI50 (U-251): > 100 µM (inactive)
GI50 (UACC-257): > 100 µM (inactive)
GI50 (UACC-62): > 100 µM (inactive)
GI50 (UO-31): > 100 µM (inactive)
GI50 (XF498): > 100 µM (inactive)
